Patent US20260216294A1, “BETA 2-ADRENERGIC RECEPTOR AGONISTS FOR TREATMENT OR PREVENTION OF MUSCLE WASTING” (ATROGI AB, priority 2023, published 2026)

Assays:
[1] = system: L6-myotubes; experiment: Glucose uptake in differentiated L6-myotubes (Biological Example 2); assay type: cell-based; details: glucose uptake in differentiated L6-myotubes, compound at 10 μM, activity relative to isoproterenol at 10 μM; for Emax at 10 µM: read-out: Biological example 2 (GU)
Outline: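 Differentiated L6 myotubes were serum-starved overnight in 0.5% fatty-acid-free BSA and then stimulated with compound or isoprenaline at 1×10^−5 M final. After 1 h 40 min cells were washed and re-dosed in glucose-free medium. Twenty minutes later, uptake of 50 nM ^3H-2-deoxyglucose over 10 min was measured by scintillation counting of NaOH lysates.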

[2] = system: L6-myotubes; experiment: Measurement of intracellular cAMP levels in differentiated L6-myotubes (Biological Example 3); assay type: cell-based; details: intracellular cAMP in differentiated L6-myotubes, compound at 10 μM, activity relative to isoproterenol at 10 μM; for Emax at 10 µM: 0.25 h
Outline: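 Serum-starved differentiated L6 myotubes stimulated 15 min with test compound at 1×10^−5 M final (isoprenaline as reference) in HBSS with 1% BSA, 5 mM HEPES, 1 mM IBMX, pH 7.4. Cells EtOH-extracted, lysed, and intracellular cAMP measured by AlphaScreen.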

SMILES: CC(=O)N[C@H]1CC[C@H](CC(C)(C)NC[C@H](O)c2cccnc2C)CC1 [Compound 434]
- Emax at 10 µM [1]: > 75%
- Emax at 10 µM [2]: < 25%

SMILES: Cc1ncccc1[C@@H](O)CNC(C)(C)C[C@H]1CC[C@H](NS(C)(=O)=O)CC1 [Compound 435, (R)-2-{1,1-dimethyl-2-[(1r,4R)-4-(mesylamino)cyclohexyl]ethylamino}-1-(2-methyl-3-pyridyl)-1-ethanol]
- Emax at 10 µM [1]: 25 to 50%
- Emax at 10 µM [2]: < 25%

SMILES: CC(=O)N[C@H]1CC[C@@H](CC(C)(C)NC[C@H](O)c2cccnc2C)CC1 [Compound 436]
- Emax at 10 µM [1]: 50 to 75%
- Emax at 10 µM [2]: < 25%

SMILES: Cc1ncccc1[C@@H](O)CNC(C)(C)C[C@H]1CC[C@@H](NS(C)(=O)=O)CC1 [Compound 437, (R)-2-{1,1-dimethyl-2-[(1s,4S)-4-(mesylamino)cyclohexyl]ethylamino}-1-(2-methyl-3-pyridyl)-1-ethanol]
- Emax at 10 µM [1]: 25 to 50%
- Emax at 10 µM [2]: < 25%

SMILES: O[C@@H](c1cccc(F)c1)C12CCC(COCc3ccc(F)cc3)(CC1)N2 [Compound 438, (S)-(m-fluorophenyl)(4-{[(p-fluorophenyl)methoxy]methyl}-7-azabicyclo[[2.2.1]]hept-1-yl)methanol]
- Emax at 10 µM [1]: < 25%
- Emax at 10 µM [2]: < 25%

SMILES: O[C@H](c1cccc(F)c1)C12CCC(COCc3ccc(F)cc3)(CC1)N2 [Compound 439, (R)-(m-fluorophenyl)(4-{[(p-fluorophenyl)methoxy]methyl}-7-azabicyclo[[2.2.1]]hept-1-yl)methanol]
- Emax at 10 µM [1]: > 75%
- Emax at 10 µM [2]: 25 to 50%

SMILES: O[C@@H](c1cccc(F)c1)C12CCC(COc3ccc(Cl)cc3)(CC1)N2 [Compound 440]
- Emax at 10 µM [1]: > 75%
- Emax at 10 µM [2]: < 25%

SMILES: O[C@H](c1cccc(F)c1)C12CCC(COc3ccc(Cl)cc3)(CC1)N2 [Compound 441, (R)-{4-[(p-chlorophenoxy)methyl]-7-azabicyclo[[2.2.1]]hept-1-yl}(m-fluorophenyl)methanol]
- Emax at 10 µM [1]: > 75%
- Emax at 10 µM [2]: < 25%

SMILES: O[C@@H](c1cncc(F)c1)C12CCC(COCc3ccc(F)cc3)(CC1)N2 [Compound 442, (S)-(4-{[(p-fluorophenyl)methoxy]methyl}-7-azabicyclo[[2.2.1]]hept-1-yl)(5-fluoro-3-pyridyl)methanol]
- Emax at 10 µM [1]: 25 to 50%
- Emax at 10 µM [2]: < 25%

SMILES: O[C@H](c1cncc(F)c1)C12CCC(COCc3ccc(F)cc3)(CC1)N2 [Compound 443, (R)-(4-{[(p-fluorophenyl)methoxy]methyl}-7-azabicyclo[[2.2.1]]hept-1-yl)(5-fluoro-3-pyridyl)methanol]
- Emax at 10 µM [1]: > 75%
- Emax at 10 µM [2]: 25 to 50%

SMILES: O[C@@H](c1ccccc1F)C12CCC(CCc3cccnc3)(CC1)N2 [Compound 444, (R)-(o-fluorophenyl){4-[2-(3-pyridyl)ethyl]-7-azabicyclo[[2.2.1]]hept-1-yl}methanol]
- Biological example 2 (GU) [1]: +++ (If a compound at 10 μM shows activity of more than 75% of that of isoproterenol at 10 μM, the activity is denoted with +++)
- Emax at 10 µM [2]: 50 to 75%

SMILES: O[C@@H](c1cccc(F)c1)C12CCC(CCc3cccnc3)(CC1)N2 [Compound 445, (S)-(m-fluorophenyl){4-[2-(3-pyridyl)ethyl]-7-azabicyclo[[2.2.1]]hept-1-yl}methanol]
- Emax at 10 µM [1]: > 75%
- Biological example 3 (CAMP) [2]: − (if it less than 25% it is denoted with −)

SMILES: O[C@@H](c1cccc(F)c1)C12CCC(CCc3cccnc3)(CC1)N2 [Compound 446, (R)-(m-fluorophenyl){4-[2-(3-pyridyl)ethyl]-7-azabicyclo[[2.2.1]]hept-1-yl}methanol]
- Biological example 2 (GU) [1]: +++ (If a compound at 10 μM shows activity of more than 75% of that of isoproterenol at 10 μM, the activity is denoted with +++)
- Biological example 3 (CAMP) [2]: ++ (if it is between 75 and 50% it is denoted with ++)

SMILES: CC(C)(C[C@H]1CC[C@@H](NC(=O)C2CC2)CC1)NC[C@H](O)c1cccc(F)c1 [Compound 447]
- Emax at 10 µM [1]: > 75%
- Emax at 10 µM [2]: < 25%

SMILES: CC(C)(C[C@H]1CC[C@@H](NC(=O)C2CCC2)CC1)NC[C@H](O)c1cccc(F)c1 [Compound 448]
- Emax at 10 µM [1]: 50 to 75%
- Emax at 10 µM [2]: < 25%

SMILES: CC(C)(C[C@H]1CC[C@@H](NC(=O)OC(C)(C)C)CC1)NC[C@H](O)c1cccc(C(F)(F)F)n1 [Compound 450, (1R,4s)-4-(2-{(S)-2-hydroxy-2-[6-(trifluoromethyl)-2-pyridyl]]ethylamino}-2-methylpropyl)cyclohexyl 2-methyl-2-propanecarbamate]
- Emax at 10 µM [1]: < 25%
- Emax at 10 µM [2]: < 25%

SMILES: CC(=O)N[C@H]1CC[C@@H](CC(C)(C)NC[C@H](O)c2cccc(F)c2)CC1 [Compound 452]
- Emax at 10 µM [1]: > 75%
- Emax at 10 µM [2]: < 25%

SMILES: CC(C)(C[C@H]1CC[C@@H](NS(C)(=O)=O)CC1)NC[C@H](O)c1cccc(F)c1 [Compound 453, (R)-2-{1,1-dimethyl-2-[(1s,4S)-4-(mesylamino)cyclohexyl]ethylamino}-1-(m-fluorophenyl)-1-ethanol]
- Emax at 10 µM [1]: > 75%
- Emax at 10 µM [2]: < 25%

SMILES: CC(C)(C[C@H]1CC[C@@H](NC(=O)C(C)(C)C)CC1)NC[C@H](O)c1cncc(F)c1 [Compound 455]
- Emax at 10 µM [1]: 50 to 75%
- Emax at 10 µM [2]: < 25%

SMILES: CC(C)(C[C@H]1CC[C@@H](N)CC1)NC[C@H](O)c1cccc(F)c1 [Compound 456]
- Emax at 10 µM [1]: > 75%
- Emax at 10 µM [2]: < 25%

SMILES: CC(C)(C[C@H]1CC[C@H](NS(=O)(=O)C(F)(F)F)CC1)NC[C@H](O)c1cccc(F)c1 [Compound 458]
- Emax at 10 µM [1]: > 75%
- Emax at 10 µM [2]: < 25%

SMILES: CC(C)(C[C@H]1CC[C@H](NC(=O)OC(C)(C)C)CC1)NC[C@H](O)c1cccc(C(F)(F)F)n1 [Compound 459]
- Emax at 10 µM [1]: > 75%
- Emax at 10 µM [2]: < 25%

SMILES: CC(=O)N[C@H]1CC[C@H](CC(C)(C)NC[C@H](O)c2cccc(C(F)(F)F)n2)CC1 [Compound 460]
- Emax at 10 µM [1]: 50 to 75%
- Emax at 10 µM [2]: < 25%

SMILES: CC(C)(C[C@H]1CC[C@H](NS(C)(=O)=O)CC1)NC[C@H](O)c1cccc(C(F)(F)F)n1 [Compound 461, (S)-2-{1,1-dimethyl-2-[(1r,4S)-4-(mesylamino)cyclohexyl]ethylamino}-1-[6-(trifluoromethyl)-2-pyridyl]-1-ethanol]
- Emax at 10 µM [1]: 25 to 50%
- Emax at 10 µM [2]: < 25%

SMILES: CC(=O)N[C@H]1CC[C@@H](CC(C)(C)NC[C@H](O)c2cccc(C(F)(F)F)n2)CC1 [Compound 462]
- Emax at 10 µM [1]: 25 to 50%
- Emax at 10 µM [2]: < 25%

SMILES: CC(C)(C[C@H]1CC[C@@H](NS(C)(=O)=O)CC1)NC[C@H](O)c1cccc(C(F)(F)F)n1 [Compound 463]
- Emax at 10 µM [1]: 50 to 75%
- Emax at 10 µM [2]: < 25%

SMILES: CN(C)S(=O)(=O)[C@H]1CC[C@H](CC(C)(C)NC[C@H](O)c2cccc(F)c2)CC1 [Compound 464]
- Emax at 10 µM [1]: 25 to 50%
- Emax at 10 µM [2]: 25 to 50%

SMILES: CN(C)S(=O)(=O)[C@H]1CC[C@H](CC(C)(C)NC[C@H](O)c2cncc(F)c2)CC1 [Compound 465]
- Emax at 10 µM [1]: 50 to 75%
- Emax at 10 µM [2]: 25 to 50%

SMILES: CC(C)(C[C@H]1CC[C@@H](N)CC1)NC[C@H](O)c1cncc(F)c1 [Compound 466]
- Emax at 10 µM [1]: 50 to 75%
- Emax at 10 µM [2]: < 25%

SMILES: CC(=O)N[C@H]1CC[C@@H](CC(C)(C)NC[C@H](O)c2cncc(F)c2)CC1 [Compound 467]
- Emax at 10 µM [1]: > 75%
- Emax at 10 µM [2]: < 25%
